Experimental data published in patent publication US12583866B2, “Pyrido[2,3-b][1,4]oxazines or tetrahydropyrido[2,3-b][1,4]oxazepines as IAP antagonists” (BEIGENE, LTD., priority 2020, dated 2026).
Counter-ions that a name gives are not always drawn.

Experiments:
[1] = molecular target: T1, recombinant human cIAP2-BIR3 protein (Homo sapiens, UniProt Q13489); assay: Recombinant human c-IAP2-BIR3 biochemical assay (HTRF, peptide displacement); details: 3.7 nM cIAP2-BIR3, 3.7 nM AbuRPF-K(5-Fam)-NH2 peptide, read-out: Protein binding IC50 (nM) c-IAP2
T1 construct: recombinant human cIAP2-BIR3 protein; purchased Reaction biology APT-11-372
T1 sequence (Q13489 238-349 limits assumed): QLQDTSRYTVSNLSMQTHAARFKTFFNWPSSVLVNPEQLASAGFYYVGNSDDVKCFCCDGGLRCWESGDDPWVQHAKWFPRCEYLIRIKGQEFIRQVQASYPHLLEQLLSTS
Procedure: II. Recombinant Human c-IAP2-BIR3 Biochemical Assay
(§1) Compounds disclosed herein were tested for blocking of recombinant human cIAP2-BIR3 protein (Cat: APT-11-372, Reaction biology) with its peptide in an assay based on Homogeneous Time Resolved Fluorescence. 3.7 nM recombinant human cIAP2-BIR3 protein was pre-incubated with a serial dilution of compounds disclosed herein (maximum concentration is 10 uM, 4-fold serially diluted, 10 points) at room temperature for 1 hour in an assay buffer containing 20 mM HEPES, pH 7.5, 50 mM NaCl, 0.005% Tween-20, 1 mM DTT. Then 3.7 nM AbuRPF-K(5-Fam)-NH2 (Cat: 709702, GL Biochem) was added to plate incubated at room temperature for 1 hour. Mab Anti-6His Tb cryptate Gold (Cat: 61HI2TLB, Cisbio Bioassays) was added to plate and further incubated at room temperature for 1 hour. The HTRF signals (ex337 nm, em520 nm/490 nm) were read on BMG PHERAstar FS instrument. The inhibition percentage of cIAP2-BIR3 interaction with its peptide in presence of increasing concentrations of compounds was calculated based on the ratio of fluorescence at 520 nm to that at 490 nm. The IC50 for each compound was derived from fitting the data to the four-parameter logistic equation by Dotmatics and summarized in table 1.

[2] = molecular target: T2, recombinant human cIAP1-BIR3 protein (Homo sapiens, UniProt Q13490); assay: Recombinant human c-IAP1-BIR3 biochemical assay (HTRF, peptide displacement); details: 1.2 nM cIAP1-BIR3, 3 nM AbuRPF-K(5-Fam)-NH2 peptide, read-out: Protein binding IC50 (nM) c-IAP1
T2 construct: recombinant human cIAP1-BIR3 protein; purchased Reaction biology APT-11-370
T2 sequence (Q13490 253-363 limits assumed): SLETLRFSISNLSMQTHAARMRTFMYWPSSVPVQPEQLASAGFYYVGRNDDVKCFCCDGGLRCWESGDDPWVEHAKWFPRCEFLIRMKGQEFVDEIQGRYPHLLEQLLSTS
Procedure: I. Recombinant human c-IAP1-BIR3 biochemical assay
as §1, with “human cIAP1-BIR3” for “human cIAP2-BIR3”, “(Cat: APT-11-370,” for “(Cat: APT-11-372,”, “Fluorescence. 1.2” for “Fluorescence. 3.7”, “Then 3” for “Then 3.7”, “nM AbuRPF-K (5-Fam)-NH2” for “nM AbuRPF-K(5-Fam)-NH2”, “of cIAP1-BIR3” for “of cIAP2-BIR3”

[3] = molecular target: T3, recombinant human XIAP-BIR3 protein (Homo sapiens, UniProt P98170); assay: Recombinant human XIAP-BIR3 biochemical assay (HTRF, peptide displacement); details: 3.7 nM XIAP-BIR3, 7.6 nM AbuRPF-K(5-Fam)-NH2 peptide, read-out: Protein binding IC50 (nM) XIAP
T3 construct: recombinant human XIAP-BIR3 protein; purchased Reaction biology APT-11-374
T3 sequence (P98170 241-356 limits assumed): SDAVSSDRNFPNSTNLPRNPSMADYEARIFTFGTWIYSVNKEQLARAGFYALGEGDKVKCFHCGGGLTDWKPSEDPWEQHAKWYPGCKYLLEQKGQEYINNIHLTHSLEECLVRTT
Procedure: III. Recombinant Human XIAP-BIR3 Biochemical Assay
as §1, with “human XIAP-BIR3” for “human cIAP2-BIR3”, “(Cat: APT-11-374,” for “(Cat: APT-11-372,”, “Then 7.6” for “Then 3.7”, “of XIAP-BIR3” for “of cIAP2-BIR3”

Row | SMILES | IC50 [1] | IC50 [2] | IC50 [3]
1 | C[C@@H]1CN(CC(=O)N2c3cc(Cc4ccc(F)cc4)c(C(=O)NCC4CC4)nc3OC[C@@H]2C)[C@@H](CN2[C@H](C)COC[C@H]2C)CN1 [Example 70, (S)—N-(cyclopropylmethyl)-1-(2-((2R,5R)-2-(((3R,5R)-3,5-dimethylmorpholino)methyl)-5-methylpiperazin-1-yl)acetyl)-7-(4-fluorobenzyl)-2-methyl-2,3-dihydro-1H-pyrido[2,3-b][1,4]oxazine-6-carboxamide] | 0.27 nM | 0.16 nM | 1.9 nM
2 | CC(C)OC[C@@H]1COCCN1C[C@H]1CN[C@H](C)CN1CC(=O)N1c2cc(Cc3ccc(F)cc3)c(CO)nc2OC[C@@H]1C [Compound 59] | 0.67 nM | 0.26 nM | 7.8 nM
3 | C[C@@H]1CN(CC(=O)N2c3cc(Cc4ccc(F)cc4)c(NC(=O)C4CC4)nc3OC[C@@H]2C)[C@@H](CN2[C@H](C)COC[C@H]2C)CN1 [Compound 119, N—((S)-1-(2-((2R,5R)-2-(((3R,5R)-3,5-dimethylmorpholino)methyl)-5-methylpiperazin-1-yl)acetyl)-7-(4-fluorobenzyl)-2-methyl-2,3-dihydro-1H-pyrido[2,3-b][1,4]oxazin-6-yl)cyclopropanecarboxamide] | 0.35 nM | 0.2 nM | 4.4 nM
4 | C[C@@H]1CN(CC(=O)N2c3cc(Cc4ccc(F)cc4)c(N4CCOCC4)nc3OC[C@@H]2C)[C@@H](CN2[C@H](C)COC[C@H]2C)CN1 [Compound 106, 2-((2R,5R)-2-(((3R,5R)-3,5-dimethylmorpholino)methyl)-5-methylpiperazin-1-yl)-1-((S)-7-(4-fluorobenzyl)-2-methyl-6-morpholino-2,3-dihydro-1H-pyrido[2,3-b][1,4]oxazin-1-yl)ethan-1-one] | 0.94 nM | 0.33 nM | 16.9 nM
5 | C[C@@H]1CN(CC(=O)N2c3cc(Cc4ccc(F)cc4)c(C(=O)NCCN(C)C)nc3OC[C@@H]2C)[C@@H](CN2[C@H](C)COC[C@H]2C)CN1 [Compound 97, (S)—N-(2-(dimethylamino)ethyl)-1-(2-((2R,5R)-2-(((3R,5R)-3,5-dimethylmorpholino)methyl)-5-methylpiperazin-1-yl)acetyl)-7-(4-fluorobenzyl)-2-methyl-2,3-dihydro-1H-pyrido[2,3-b][1,4]oxazine-6-carboxamide] | 0.51 nM | 0.27 nM | 12.5 nM
6 | C[C@@H]1CN(CC(=O)N2c3cc(Cc4ccc(F)cc4)cnc3OC[C@@H]2COCc2ccccc2)[C@@H](CN2[C@H](C)COC[C@H]2C)CN1 [Compound 23, 1-((S)-2-((benzyloxy)methyl)-7-(4-fluorobenzyl)-2,3-dihydro-1H-pyrido[2,3-b][1,4]oxazin-1-yl)-2-((2R,5R)-2-(((3R,5R)-3,5-dimethylmorpholino)methyl)-5-methylpiperazin-1-yl)ethan-1-one] | 0.18 nM | 0.13 nM | 6.9 nM
7 | C[C@@H]1CN(CC(=O)N2c3cc(Cc4ccc(F)cc4)c(O)nc3OC[C@@H]2C)[C@@H](CN2[C@H](C)COC[C@H]2C)CN1 [Example 81] | 0.42 nM | 0.18 nM | 2.9 nM
8 | C[C@@H]1CN(CC(=O)N2c3cc(Cc4ccc(F)cc4)c(CO)nc3OC[C@@H]2C)[C@@H](CN2CCOCC23CC3)CN1 [Compound 50, 2-((2R,5R)-2-((7-oxa-4-azaspiro[2.5]octan-4-yl)methyl)-5-methylpiperazin-1-yl)-1-((S)-7-(4-fluorobenzyl)-6-(hydroxymethyl)-2-methyl-2,3-dihydro-1H-pyrido[2,3-b][1,4]oxazin-1-yl)ethan-1-one] | 0.93 nM | 0.44 nM | 14 nM
9 | C[C@@H]1CN(CC(=O)N2c3cc(Cc4ccc(F)cc4)c(NC4CC4)nc3OC[C@@H]2C)[C@@H](CN2[C@H](C)COC[C@H]2C)CN1 [Compound 110] | 0.75 nM | 0.36 nM | 11.9 nM
10 | C[C@@H]1CN(CC(=O)N2CC(C)(C)Oc3nc(Br)c(Cc4ccc(F)cc4)cc32)[C@@H](CN2CCOC[C@H]2C)CN1 [Compound 12, 1-(6-bromo-7-(4-fluorobenzyl)-3,3-dimethyl-2,3-dihydro-1H-pyrido[2,3-b][1,4]oxazin-1-yl)-2-((2R,5R)-5-methyl-2-(((R)-3-methylmorpholino)methyl)piperazin-1-yl)ethan-1-one] | 44 nM | 16 nM | 561 nM
11 | C[C@@H]1CN(CC(=O)N2CCOc3nc(C#N)c(Cc4ccc(F)cc4)cc32)[C@@H](CN2CCOC[C@H]2C)CN1 [Compound 1, 7-(4-fluorobenzyl)-1-(2-((2R,5R)-5-methyl-2-(((R)-3-methylmorpholino)methyl)piperazin-1-yl)acetyl)-2,3-dihydro-1H-pyrido[2,3-b][1,4]oxazine-6-carbonitrile formate] | 0.9 nM | 0.5 nM | 26 nM
12 | CCOC[C@H]1COc2ncc(Cc3ccc(F)cc3)cc2N1C(=O)CN1C[C@@H](C)NC[C@@H]1CN1[C@H](C)COC[C@H]1C [Compound 36] | 0.8 nM | 0.42 nM | 50 nM
13 | C[C@@H]1CN(CC(=O)N2c3cc(Cc4ccc(F)cc4)c(CO)nc3OC[C@@H]2C)[C@@H](CN2C[C@@H]3C[C@H]2CO3)CN1 [Example 85, 2-((2R,5R)-2-(((1S,4S)-2-oxa-5-azabicyclo[2.2.1]heptan-5-yl)methyl)-5-methylpiperazin-1-yl)-1-((S)-7-(4-fluorobenzyl)-6-(hydroxymethyl)-2-methyl-2,3-dihydro-1H-pyrido[2,3-b][1,4]oxazin-1-yl)ethan-1-one] | 0.72 nM | 0.68 nM | 20 nM
14 | CC(C)NC(=O)c1nc2c(cc1Cc1ccc(F)cc1)N(C(=O)CN1C[C@@H](C)NC[C@@H]1CN1[C@H](C)COC[C@H]1C)[C@@H](C)CO2 [Example 69, (S)-1-(2-((2R,5R)-2-(((3R,5R)-3,5-dimethylmorpholino)methyl)-5-methylpiperazin-1-yl)acetyl)-7-(4-fluorobenzyl)-N-isopropyl-2-methyl-2,3-dihydro-1H-pyrido[2,3-b][1,4]oxazine-6-carboxamide] | 0.37 nM | 0.16 nM | 3.7 nM
15 | COC[C@@H]1COCCN1C[C@H]1CN[C@H](C)CN1CC(=O)N1c2cc(Cc3ccc(F)cc3)c(CO)nc2OC[C@@H]1C [Compound 52, 1-((S)-7-(4-fluorobenzyl)-6-(hydroxymethyl)-2-methyl-2,3-dihydro-1H-pyrido[2,3-b][1,4]oxazin-1-yl)-2-((2R,5R)-2-(((R)-3-(methoxymethyl)morpholino)methyl)-5-methylpiperazin-1-yl)ethan-1-one] | 1.1 nM | 0.55 nM | 13 nM
